The NIST ThermoML archive (doi:10.1016/j.jct.2016.03.010)

Assay: mn = molality of the nth substance listed, in mol/kg
Settings: 101 kPa, Liquid; for viscosity: Capillary tube (Ostwald / Ubbelohde) method; for mass density: Vibrating tube method

O=C(O)c1cccnc1 [3-carboxylpyridine] + O
Settings | mass density, 298.15 K [kg/m3] | mass density, 308.15 K [kg/m3] | mass density, 318.15 K [kg/m3] | viscosity, 298.15 K [mPa·s] | viscosity, 308.15 K [mPa·s] | viscosity, 318.15 K [mPa·s]
m1 = 0.0202 | 997.92 | 994.89 | 991.06 | 0.8951 | 0.7224 | 0.5972
m1 = 0.0365 | 998.6 | 995.55 | 991.69 | 0.8988 | 0.725 | 0.5992
m1 = 0.0529 | 999.27 | 996.21 | 992.33 | 0.9015 | 0.7275 | 0.601
m1 = 0.0695 | 999.95 | 996.87 | 992.96 | 0.905 | 0.7308 | 0.6051
m1 = 0.0863 | 1000.62 | 997.52 | 993.59 | 0.9088 | 0.734 | 0.6074
m1 = 0.1032 | 1001.3 | 998.17 | 994.23 | 0.9119 | 0.7368 | 0.6094
